Test results as given in patent publication US9725463B2, “Substituted heterocyclic compounds as CRAC modulators” (LUPIN LIMITED, priority 2013, dated 2017).

These compounds were tested on IL-2 secretion by Jurkat T cells (assay: Inhibition of IL-2 secretion). Conditions: Homo sapiens; Jurkat T cells stimulated with PHA, 20 to 24 hours, IL-2 by ELISA.
Format: cell-based
Experimental: The CRAC channel modulatory activity of the compounds were thus evaluated by measuring the secretion of IL-2 by antigen stimulated T-cells in vitro. Alternatively, such activity can also be evaluated by assay methods known to one skilled in the art.
Inhibition of IL-2 secretion: Jurkat T cells were seeded at a density of 0.5 to 1 million cells per well in RPMI medium. Test compounds from this invention were added to the cells at different concentrations. This was followed by the addition of PHA, a T cell mitogen after 10 minutes. The cells were then incubated for 20 to 24 hours in a CO2 incubator at 37° C. After incubation with the compounds, cells were centrifuged, the supernatant was collected and processed for ELISA to quantitate the amount of IL-2 secreted. A commercial ELISA kit (R&D Systems, Inc. Minneapolis, Minn., USA) was used to estimate the IL-2 concentrations. Amount of IL-2 secreted by cells stimulated with PHA was considered as a 100% maximal signal and the decrease in amount of IL-2 secreted by cells treated with the test compounds was expressed as percent inhibition of the maximal signal. The dose response data was analyzed using 4-parametric sigmoidal dose response (variable slope) curve-fit.

Row | IC50 [nM] | Compound
1 | < 25 | CN1C(=O)COc2cc(-c3ccc(NC(=O)c4c(F)cccc4F)nc3)c(C3CC3)cc21 [Example 115, N-(5-(6-Cyclopropyl-4-methyl-3-oxo-3,4-dihydro-2H-benzo[b][1,4]oxazin-7-yl)pyridin-2-yl)-2,6-difluorobenzamide]
2 | 25 to 50 | CN1C(=O)COc2cc(-c3cnc(NC(=O)c4c(F)cccc4Cl)cn3)c(C3CC3)cc21 [Example 117, 2-Chloro-N-(5-(6-cyclopropyl-4-methyl-3-oxo-3,4-dihydro-2H-benzo[b][1,4]oxazin-7-yl)pyrazin-2-yl)-6-fluorobenzamide]

Further lines, the compound ahead of its results:

Row | Compound | IC50 [nM]
3 | Cc1cc2oc(=O)n(C)c2cc1-c1ccc(C(=O)Nc2c(F)cccc2F)s1 [Example 140, N-(2,6-Difluorophenyl)-5-(3,6-dimethyl-2-oxo-2,3-dihydrobenzo[d]oxazol-5-yl)thiophene-2-carboxamide] | < 25
4 | CCc1c(-c2ccc(NC(=O)c3c(F)cccc3F)cc2)ccc2c1oc(=O)n2C [Example 16, N-(4-(7-Ethyl-3-methyl-2-oxo-2,3-dihydrobenzo [d]oxazol-6-yl)phenyl)-2,6-difluorobenzamide] | 25 to 50
5 | Cn1c(=O)oc2c(C3CC3)c(-c3ccc(NC(=O)c4c(F)cccc4Cl)cc3)ccc21 [Example 101, 2-Chloro-N-(4-(7-cyclopropyl-3-methyl-2-oxo-2,3-dihydrobenzo[d]oxazol-6-yl)phenyl)-6-fluorobenzamide] | < 25
6 | Cc1cc2oc(=O)n(CCF)c2cc1-c1ccc(NC(=O)c2c(F)cccc2F)cc1 [Example 30, 2,6-Difluoro-N-(4-(3-(2-fluoroethyl)-6-methyl-2-oxo-2,3-dihydrobenzo[d]oxazol-5-yl)phenyl)benzamide] | < 25
7 | Cn1c(=O)oc2cc(-c3ccc(NC(=O)c4c(F)cccc4F)cc3)c(C3CC3)nc21 [Example 36, N-(4-(5-Cyclopropyl-3-methyl-2-oxo-2,3-dihydrooxazolo [4,5-b]pyridin-6-yl)phenyl)-2,6-difluorobenzamide] | < 25
